This assay deals with T1, human M4 muscarinic acetylcholine receptor (Homo sapiens, UniProt P08173).
T1 construct: expressed in transfected cells; host or cells: CHO-K1
T1 sequence (P08173 1-479): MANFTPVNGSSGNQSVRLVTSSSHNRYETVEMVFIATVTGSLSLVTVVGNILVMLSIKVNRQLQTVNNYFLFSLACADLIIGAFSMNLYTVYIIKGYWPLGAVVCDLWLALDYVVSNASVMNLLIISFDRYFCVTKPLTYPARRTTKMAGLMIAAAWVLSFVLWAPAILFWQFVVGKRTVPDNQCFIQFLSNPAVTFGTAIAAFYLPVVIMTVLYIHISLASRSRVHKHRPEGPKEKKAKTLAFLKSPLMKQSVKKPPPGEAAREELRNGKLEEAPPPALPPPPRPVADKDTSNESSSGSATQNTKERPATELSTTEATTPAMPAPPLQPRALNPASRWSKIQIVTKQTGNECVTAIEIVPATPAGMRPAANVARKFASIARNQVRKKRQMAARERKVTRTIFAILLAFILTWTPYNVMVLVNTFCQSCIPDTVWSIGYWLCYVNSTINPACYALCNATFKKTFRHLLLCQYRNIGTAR
The assay can be described thus: human FLIPR-based M4 PAM assay, CHO-K1 cells stably transfected with human M4 receptor and chimeric G-protein Gαqi5. The settings on record: inflection point (IP) of dose response curve; acetylcholine added at 20% of maximum response; CHO-K1 human M4/Gαqi5, FLIPR Tetra. It counts as cell-based. How it is done:
In a typical experiment the M4 muscarinic acetylcholine receptor modulating activity of the compounds of the present invention was determined in accordance with the following experimental method. CHO-K1 cells stably transfected with human M4 receptor and chimeric G-protein Gαqi5 (Coward P, et al., Analytical Biochemistry, 270:242-248 (1999)) are thawed from liquid N2 storage, resuspended in growth medium, plated in black, clear bottom 384 well plates, and incubated 16-20 hours at 37° C., 5% CO2. On the day of assay, growth medium is removed, the cells are washed 2 times with wash buffer, and cells are incubated in dye loading buffer at 37° C., 5% CO2 for ˜1 hour. Following dye loading the cell plates are placed in a FLIPR Tetra instrument and while monitoring dye fluorescence (excitation […]), 10 uL of test substance at increasing concentrations is added, and fluorescence values are recorded for 4 min. Next, 10 uL of acetylcholine is added (final concentration calculated so as to achieve 20% of the maximum acetycholine response), and the fluorescence reading is continued for 3.5 min. In some cases, a third addition of acetylcholine (final concentration calculated to achieve 70% of the maximal acetylcholine response) is performed. The resulting dose response curves are fit to a 4 parameter logistic equation and the final result is determined as the inflection point (IP) of the curve
CHO-K1 cells stably transfected with human M4 receptor and chimeric G-protein Gαqi5 are thawed from liquid N2 storage, resuspended in growth medium, plated in black, clear bottom 384 well plates, and incubated 16-20 hours at 37° C., 5% CO2.
On the day of assay, growth medium is removed, the cells are washed 2 times with wash buffer, and cells are incubated in dye loading buffer at 37° C., 5% CO2 for ˜1 h. Following dye loading the cell plates are placed in a FLIPR Tetra instrument and while monitoring dye fluorescence ([…]), 10 uL of test substance at increasing concentrations is added, and fluorescence values are recorded for 4 min. Next, 10 uL of acetylcholine is added (final concentration calculated so as to achieve 20% of the maximum acetycholine response), and the fluorescence reading is continued for 3.5 min. In some cases, a third addition of acetylcholine (final concentration calculated to achieve 70% of the maximal acetylcholine response) is performed.

Each structure is given as a SMILES string.

As usually defined, the EC50 is the concentration that produces a half-maximal response. Low values mean an effect from little substance, high ones a need for much substance.

Compound `COCc1nc(Cl)c(C)c(N2CCC(Oc3ccc(OC)cc3)CC2)n1` [Example 61, 4-chloro-2-(methoxymethyl)-6-(4-(4-methoxyphenoxy)piperidin-1-yl)-5-methylpyrimidine] registered an EC50 of 84 nM. This counts as double-digit nanomolar. The compound `COc1ccc(OC2CCN(c3nc(C)nc(Cl)c3C)CC2)cc1` [Example 62, 4-chloro-6-(4-(4-methoxyphenoxy)piperidin-1-yl)-2,5-dimethylpyrimidine] came in with an EC50 of 94 nM.

With `Cc1c(Cl)nc(CO)nc1N1CCC(Oc2ccc3nn(C)cc3c2)CC1` [Example 63], the EC50 amounted to 99 nM. Under `Cc1ncc(C)c(N2CCC(Oc3ccc(OCCO)nc3)CC2)n1` [Example 64, 2-((5-((1-(2,5-dimethylpyrimidin-4-yl)piperidin-4-yl)oxy)pyridin-2-yl)oxy)ethan-1-ol] stands 99 nM; under `COc1ncc(OC2CCN(c3nc(CO)nc(Cl)c3C)CC2)cc1Cl` [Example 65, (4-chloro-6-(4-((5-chloro-6-methoxypyridin-3-yl)oxy)piperidin-1-yl)-5-methylpyrimidin-2-yl)methanol], 100 nM; under `Cc1c(Cl)ncnc1N1CCC(Oc2ccc3nn(C)cc3c2)CC1` [Example 66, 5-((1-(6-chloro-5-methylpyrimidin-4-yl)piperidin-4-yl)oxy)-2-methyl-2H-indazole], 106 nM. Under `Cc1nc(Cl)c(C)c(N2CCC(Oc3ccc4nn(C)cc4c3)CC2)n1` [Example 67, 5-((1-(6-chloro-2,5-dimethypyrimidin-4-yl)piperidin-4-yl)oxy)-2-methyl-2H-indazole] stands 108 nM. Under `COc1ccc(OC2CCN(c3nc(CO)nc(Cl)c3C)CC2)cn1` [Example 68, (4-chloro-6-(4-((6-methoxypyridin-3-yl)oxy)piperidin-1-yl)-5-methylpyrimidin-2-yl)methanol] stands 126 nM; under `COc1ccc(OC2CCN(c3nc(C)ncc3C)CC2)cc1` [Example 69, 4-(4-(4-methoxyphenoxy)piperidin-1-yl)-2,5-dimethylpyrimidine], 126 nM. Turning to `COC(=O)c1cc(C)c(N2CCC(Oc3ccc(OC)nc3)CC2)nn1` [Example 70, methyl 6-(4-((6-methoxypyridin-3-yl)oxy)piperidin-1-yl)-5-methylpyridazine-3-carboxylate], the EC50 turned out to be 129 nM. The value for `Cc1ncc(C)c(N2CC[C@@H](Oc3cccc(C#N)c3)[C@H](F)C2)n1` [Example 71, 3-(((3R,4R)-1-(2,5-dimethylpyrimidin-4-yl)-3-fluoropiperidin-4-yl)oxy)benzonitrile] was 135 nM. The value for `Cc1ncc(C)c(N2CCC(Oc3ccc(OCC(C)(C)N)nc3)CC2)n1` [Example 72, 1-((5-((1-(2,5-dimethylpyrimidin-4-yl)piperidin-4-yl)oxy)pyridin-2-yl)oxy)-2-methylpropan-2-amine] was 140 nM.

`COc1ccc(OC2CCN(c3nc(S(C)(=O)=O)nc(Cl)c3C)CC2)cc1` [Example 73, 4-chloro-6-(4-(4-methoxyphenoxy)piperidin-1-yl)-5-methyl-2-(methylsulfonyl)pyrimidine] came in with an EC50 of 141 nM. The value for `COc1ncc(OC2CCN(c3nc(C)ncc3C)CC2)cc1F` [Example 74, 4-(4-((5-fluoro-6-methoxypyridin-3-yl)oxy)piperidin-1-yl)-2,5-dimethylpyrimidine] was 155 nM; that for `Cc1ncc(C)c(N2CC[C@@H](Oc3cccc(C#N)c3)[C@@H](F)C2)n1` [Example 75, 3-(((3S,4R)-1-(2,5-dimethylpyrimidin-4-yl)-3-fluoropiperidin-4-yl)oxy)benzonitrile] was 156 nM; that for `Cc1ncc(C)c(N2CCC(Oc3cccc(C#N)c3)CC2)n1` [Example 76, 3-((1-(2,5-dimethylpyrimidin-4-yl)piperidin-4-yl)oxy)benzonitrile] was 172 nM. Under `COc1ccc(OC2CCN(c3nc(Cl)nc(Cl)c3C)CC2)cc1` [Example 77, 2,4-dichloro-6-(4-(4-methoxyphenoxy)piperidin-1-yl)-5-methylpyrimidine] stands 177 nM; under `COCc1nc(Cl)c(C)c(N2CCC(Oc3ccc(OC)nc3)CC2)n1` [Example 78, 4-chloro-2-(methoxymethyl)-6-(4-((6-methoxypyridin-3-yl)oxy)piperidin-1-yl)-5-methylpyrimidine], 187 nM. Under `COc1ccc(OC2CCN(c3nc(C)ncc3C)CC2)cn1` [Example 79, 4-(4-((6-methoxypyridin-3-yl)oxy)piperidin-1-yl)-2,5-dimethylpyrimidine] stands 235 nM; under `Cc1ncc(C)c(N2CCC(Oc3ccc4cn[nH]c4c3)CC2)n1` [Example 80, 6-((1-(2,5-dimethylpyrimidin-4-yl)piperidin-4-yl)oxy)-1H-indazole], 257 nM; under `Cc1ncc(C)c(N2CC[C@H](Oc3cccc(C#N)c3)[C@H](F)C2)n1` [Example 81, 3-(((3R,4S)-1-(2,5-dimethylpyrimidin-4-yl)-3-fluoropiperidin-4-yl)oxy)benzonitrile], 293 nM.

With `COc1ccc(OC2CCN(c3nc(SC)nc(Cl)c3C)CC2)cn1` [Example 82, 4-chloro-6-(4-((6-methoxypyridin-3-yl)oxy)piperidin-1-yl)-5-methyl-2-(methylthio)pyrimidine], the EC50 turned out to be 385 nM. The value for `Cc1ncc(C)c(N2CC[C@H](Oc3cccc(C#N)c3)[C@@H](F)C2)n1` [Example 83, 3-(((3S,4S)-1-(2,5-dimethylpyrimidin-4-yl)-3-fluoropiperidin-4-yl)oxy)benzonitrile] was 475 nM; that for `COc1ccc(O[C@@H]2CCN(c3nc(C)ncc3C)C[C@@H]2F)cn1` [Example 84, 4-((3S,4R)-3-fluoro-4-((6-methoxypyridin-3-yl)oxy)piperidin-1-yl)-2,5-dimethylpyrimidine] was 574 nM; that for `COc1ccc(OC2CCN(c3nc(SC)ncc3C#N)CC2)cn1` [Example 85, 4-(4-((6-methoxypyridin-3-yl)oxy)piperidin-1-yl)-2-(methylthio)pyrimidine-5-carbonitrile] was 1150 nM. Under `COc1ccc(OC2CCN(c3nnc(C)c(C)c3C#N)CC2)cn1` [Example 86, 3-(4-((6-methoxypyridin-3-yl)oxy)piperidin-1-yl)-5,6-dimethylpyridazine-4-carbonitrile] stands 1170 nM; under `COc1ccc(OC2CCN(c3nc(C)nc(N)c3C)CC2)cn1` [Example 87, 6-(4-((6-methoxypyridin-3-yl)oxy)piperidin-1-yl)-2,5-dimethylpyrimidin-4-amine], 1500 nM. `COc1ncc(C#N)c(N2CCC(Oc3cccc(C#N)c3)CC2)n1` [Example 88, 4-(4-(3-cyanophenoxy)piperidin-1-yl)-2-methoxypyrimidine-5-carbonitrile] had an EC50 of 1530 nM.

`COc1ccc(OC2CCN(c3ncnc(N)c3C)CC2)cn1` [Example 89, 6-(4-((6-methoxypyridin-3-yl)oxy)piperidin-1-yl)-5-methylpyrimidin-4-amine]: the response was half-maximal at 1610 nM (EC50). Under `Cc1c(Cl)nc(CO)nc1N1CC[C@@H](Oc2ccc3[nH]ncc3c2)[C@@H](F)C1` [Example 90, (4-((3S,4R)-4-((1H-indazol-5-yl)oxy)-3-fluoropiperidin-1-yl)-6-chloro-5-methylpyrimidin-2-yl)methanol] stands 20 nM; under `Cc1c(Cl)nc(CO)nc1N1CCC(Oc2ccc3c(c2)C(=O)CO3)CC1` [Example 91, 5-((1-(6-chloro-2-(hydroxymethyl)-5-methylpyrimidin-4-yl)piperidin-4-yl)oxy)benzofuran-3(2H)-one], 27 nM; under `Cc1c(Cl)nc(CO)nc1N1CCC(Oc2ccc3c(c2)OCCO3)CC1` [Example 92, (4-chloro-6-(4-((2,3-dihydrobenzo[b][1,4]dioxin-6-yl)oxy)piperidin-1-yl)-5-methylpyrimidin-2-yl)methanol], 29 nM.

(Values after patent US11319298B2 (Merck Sharp & Dohme Corp., priority 2016, dated 2022).)
